Measurements as given in the NIST ThermoML archive (doi:10.1016/j.jct.2017.02.023).
Numbers after ± are expanded uncertainties.

Experiments:
[1] = xn = mol fraction of the nth substance listed; settings: 81.5 kPa, Liquid, Vibrating tube method
[2] = refractive index (Na D-line) (dimensionless); xn = mol fraction of the nth substance listed; settings: 81.5 kPa, Liquid, Standard Abbe refractometry

CNC1CCCCC1 [N-methylcyclohexylamine] + CCCCC(C)O
Settings	mass density, 298.15 K [kg/m3]	mass density, 308.15 K [kg/m3]	mass density, 318.15 K [kg/m3]	mass density, 328.15 K [kg/m3]	refractive index, 298.15 K	refractive index, 308.15 K	refractive index, 318.15 K	refractive index, 328.15 K
[1], x2 = 0	865.2 ± 1.6	856.57 ± 1.6	847.67 ± 1.6	838.68 ± 1.6	–	–	–	–
[1], x2 = 0.0915	861.23 ± 1.6	852.73 ± 1.6	843.97 ± 1.6	835.05 ± 1.6	–	–	–	–
[1], x2 = 0.1814	857.43 ± 1.6	848.96 ± 1.6	840.23 ± 1.6	831.33 ± 1.6	–	–	–	–
[1], x2 = 0.2693	853.71 ± 1.6	845.27 ± 1.6	836.53 ± 1.6	827.62 ± 1.6	–	–	–	–
[1], x2 = 0.3559	849.84 ± 1.6	841.4 ± 1.6	832.77 ± 1.6	823.77 ± 1.6	–	–	–	–
[1], x2 = 0.44	845.7 ± 1.6	837.27 ± 1.6	828.7 ± 1.6	819.71 ± 1.6	–	–	–	–
[1], x2 = 0.5256	841.05 ± 1.6	832.6 ± 1.6	824.08 ± 1.6	815.12 ± 1.6	–	–	–	–
[1], x2 = 0.608	836.06 ± 1.6	827.68 ± 1.6	819.22 ± 1.6	810.28 ± 1.6	–	–	–	–
[1], x2 = 0.6858	831.06 ± 1.6	822.74 ± 1.6	814.31 ± 1.6	805.47 ± 1.6	–	–	–	–
[1], x2 = 0.7668	825.76 ± 1.6	817.47 ± 1.6	809.16 ± 1.6	800.26 ± 1.6	–	–	–	–
[1], x2 = 0.8463	820.48 ± 1.6	812.27 ± 1.6	804.01 ± 1.6	795.06 ± 1.6	–	–	–	–
[1], x2 = 0.9235	815.36 ± 1.6	807.2 ± 1.6	798.91 ± 1.6	789.93 ± 1.6	–	–	–	–
[2], x2 = 0	–	–	–	–	1.45306 ± 0.0016	1.44812 ± 0.0016	1.4431 ± 0.0016	1.43809 ± 0.0016
[2], x2 = 0.0915	–	–	–	–	1.45049 ± 0.0016	1.44581 ± 0.0016	1.44104 ± 0.0016	1.43628 ± 0.0016
[2], x2 = 0.1814	–	–	–	–	1.4477 ± 0.0016	1.44305 ± 0.0016	1.43835 ± 0.0016	1.43364 ± 0.0016
[2], x2 = 0.2693	–	–	–	–	1.445 ± 0.0016	1.44038 ± 0.0016	1.43572 ± 0.0016	1.43103 ± 0.0016
[2], x2 = 0.3559	–	–	–	–	1.44229 ± 0.0016	1.4377 ± 0.0016	1.43309 ± 0.0016	1.42844 ± 0.0016
[2], x2 = 0.44	–	–	–	–	1.43938 ± 0.0016	1.43484 ± 0.0016	1.43029 ± 0.0016	1.42569 ± 0.0016
[2], x2 = 0.5256	–	–	–	–	1.43598 ± 0.0016	1.43151 ± 0.0016	1.42702 ± 0.0016	1.42247 ± 0.0016
[2], x2 = 0.608	–	–	–	–	1.43233 ± 0.0016	1.42789 ± 0.0016	1.42346 ± 0.0016	1.41895 ± 0.0016
[2], x2 = 0.6858	–	–	–	–	1.42866 ± 0.0016	1.42425 ± 0.0016	1.41985 ± 0.0016	1.41537 ± 0.0016
[2], x2 = 0.7668	–	–	–	–	1.42478 ± 0.0016	1.42041 ± 0.0016	1.41606 ± 0.0016	1.41162 ± 0.0016
[2], x2 = 0.8463	–	–	–	–	1.42103 ± 0.0016	1.4167 ± 0.0016	1.4124 ± 0.0016	1.40799 ± 0.0016
[2], x2 = 0.9235	–	–	–	–	1.41731 ± 0.0016	1.41299 ± 0.0016	1.4087 ± 0.0016	1.40428 ± 0.0016

CNC1CCCCC1 [N-methylcyclohexylamine] + CCC(C)O
Settings	mass density, 298.15 K [kg/m3]	mass density, 308.15 K [kg/m3]	mass density, 318.15 K [kg/m3]	mass density, 328.15 K [kg/m3]	refractive index, 298.15 K	refractive index, 308.15 K	refractive index, 318.15 K	refractive index, 328.15 K
[1], x2 = 0	865.2 ± 1.6	856.57 ± 1.6	847.67 ± 1.6	838.68 ± 1.6	–	–	–	–
[1], x2 = 0.1217	861.95 ± 1.6	853.4 ± 1.6	844.58 ± 1.6	835.58 ± 1.6	–	–	–	–
[1], x2 = 0.2333	858.47 ± 1.6	849.82 ± 1.6	840.98 ± 1.6	831.86 ± 1.6	–	–	–	–
[1], x2 = 0.3367	854.47 ± 1.6	845.86 ± 1.6	836.97 ± 1.6	827.75 ± 1.6	–	–	–	–
[1], x2 = 0.4323	850 ± 1.6	841.4 ± 1.6	832.5 ± 1.6	823.2 ± 1.6	–	–	–	–
[1], x2 = 0.5211	845.14 ± 1.6	836.51 ± 1.6	827.6 ± 1.6	818.27 ± 1.6	–	–	–	–
[1], x2 = 0.603	840.01 ± 1.6	831.35 ± 1.6	822.48 ± 1.6	813.01 ± 1.6	–	–	–	–
[1], x2 = 0.6803	834.52 ± 1.6	825.88 ± 1.6	817.02 ± 1.6	807.46 ± 1.6	–	–	–	–
[1], x2 = 0.7528	828.72 ± 1.6	820.14 ± 1.6	811.27 ± 1.6	801.72 ± 1.6	–	–	–	–
[1], x2 = 0.8202	822.7 ± 1.6	814.18 ± 1.6	805.33 ± 1.6	795.72 ± 1.6	–	–	–	–
[1], x2 = 0.8827	816.47 ± 1.6	807.88 ± 1.6	799.18 ± 1.6	789.6 ± 1.6	–	–	–	–
[1], x2 = 0.9426	809.83 ± 1.6	801.25 ± 1.6	792.58 ± 1.6	782.94 ± 1.6	–	–	–	–
[2], x2 = 0	–	–	–	–	1.45306 ± 0.0016	1.44812 ± 0.0016	1.4431 ± 0.0016	1.43809 ± 0.0016
[2], x2 = 0.1217	–	–	–	–	1.44931 ± 0.0016	1.44493 ± 0.0016	1.44047 ± 0.0016	1.43597 ± 0.0016
[2], x2 = 0.2333	–	–	–	–	1.44578 ± 0.0016	1.44144 ± 0.0016	1.43701 ± 0.0016	1.43258 ± 0.0016
[2], x2 = 0.3367	–	–	–	–	1.44206 ± 0.0016	1.43776 ± 0.0016	1.4334 ± 0.0016	1.42907 ± 0.0016
[2], x2 = 0.4323	–	–	–	–	1.43795 ± 0.0016	1.43374 ± 0.0016	1.42946 ± 0.0016	1.4252 ± 0.0016
[2], x2 = 0.5211	–	–	–	–	1.43338 ± 0.0016	1.42927 ± 0.0016	1.42503 ± 0.0016	1.42076 ± 0.0016
[2], x2 = 0.603	–	–	–	–	1.42849 ± 0.0016	1.42444 ± 0.0016	1.42021 ± 0.0016	1.41587 ± 0.0016
[2], x2 = 0.6803	–	–	–	–	1.42326 ± 0.0016	1.41926 ± 0.0016	1.41502 ± 0.0016	1.41065 ± 0.0016
[2], x2 = 0.7528	–	–	–	–	1.41783 ± 0.0016	1.41387 ± 0.0016	1.40967 ± 0.0016	1.40535 ± 0.0016
[2], x2 = 0.8202	–	–	–	–	1.41236 ± 0.0016	1.40841 ± 0.0016	1.40429 ± 0.0016	1.4001 ± 0.0016
[2], x2 = 0.8827	–	–	–	–	1.40689 ± 0.0016	1.40292 ± 0.0016	1.39886 ± 0.0016	1.39478 ± 0.0016
[2], x2 = 0.9426	–	–	–	–	1.40126 ± 0.0016	1.39719 ± 0.0016	1.39303 ± 0.0016	1.38886 ± 0.0016
